Data as given in ChEMBL document CHEMBL1131977, “Synthesis and in vitro activity of new oxazolidinone antibacterial agents having substituted isoxazoles” (1999).
Converted amounts (≈) assume the structure as drawn.

Experiments:
Type in all cases: functional
Enterococcus faecium [1] = assay: In vitro antibacterial activity against vancomycin-resistant Enterococcus faecium C6487 (VRE).
[2] = test system: Staphylococcus epidermidis; assay: In vitro antibacterial activity against Staphylococcus epidermis (S.e.1) […].
Enterococcus faecium [3] = assay: In vitro antibacterial activity against Enterococcus faecium C6301 (E.f.2).
Staphylococcus aureus [4] = assay: In vitro antibacterial activity against methicillin-resistant Staphylococcus aureus (MRSA) C6068.
Streptococcus pyogenes [5] = assay: In vitro antibacterial activity against Streptococcus pyogenes C6003 (S.p.2).
Staphylococcus aureus [6] = assay: In vitro antibacterial activity against methicillin-susceptible Staphylococcus aureus (MSSA) C2214.
Staphylococcus aureus [7] = assay: In vitro antibacterial activity against Staphylococcus aureus (S. a.) ATCC 29213.
Streptococcus pyogenes [8] = assay: In vitro antibacterial activity against Streptococcus pyogenes ATCC 8668 (S.p.1).
Enterococcus faecalis = assay: In vitro antibacterial activity against Enterococcus faecalis C6291 (E.f.1).
[9] = test system: Staphylococcus epidermidis; assay: In vitro antibacterial activity against Staphylococcus epidermis (S.e.2) C2235.
Staphylococcus aureus [10] = assay: In vitro antibacterial activity against ciprofloxacin-resistant Staphylococcus aureus (CRSA) C6043.

CC(=O)NC[C@H]1CN(c2ccc(N3CCN(Cc4cc(-c5ccccn5)no4)CC3)c(F)c2)C(=O)O1
MIC (Enterococcus faecium [1]): 2 µg/mL (≈ 4.04 µM) | MIC [2]: 1 µg/mL (≈ 2.02 µM) | MIC (Enterococcus faecium [3]): 2 µg/mL (≈ 4.04 µM) | MIC (Staphylococcus aureus [4]): 2 µg/mL (≈ 4.04 µM) | MIC (Streptococcus pyogenes [5]): 0.5 µg/mL (≈ 1.01 µM) | MIC (Staphylococcus aureus [6]): 4 µg/mL (≈ 8.09 µM) | MIC (Staphylococcus aureus [7]): 2 µg/mL (≈ 4.04 µM) | MIC (Streptococcus pyogenes [8]): 0.5 µg/mL (≈ 1.01 µM) | MIC (Enterococcus faecalis): 2 µg/mL (≈ 4.04 µM) | MIC [9]: 1 µg/mL (≈ 2.02 µM) | MIC (Staphylococcus aureus [10]): 2 µg/mL (≈ 4.04 µM)

CC(=O)NC[C@H]1CN(c2ccc(N3CCN(Cc4cc(-c5ccc(F)cc5)no4)CC3)c(F)c2)C(=O)O1
MIC (Enterococcus faecium [1]): 4 µg/mL (≈ 7.82 µM) | MIC [2]: 2 µg/mL (≈ 3.91 µM) | MIC (Enterococcus faecium [3]): 4 µg/mL (≈ 7.82 µM) | MIC (Staphylococcus aureus [4]): 4 µg/mL (≈ 7.82 µM) | MIC (Streptococcus pyogenes [5]): 2 µg/mL (≈ 3.91 µM) | MIC (Staphylococcus aureus [6]): 8 µg/mL (≈ 15.6 µM) | MIC (Staphylococcus aureus [7]): 8 µg/mL (≈ 15.6 µM) | MIC (Streptococcus pyogenes [8]): 2 µg/mL (≈ 3.91 µM) | MIC (Enterococcus faecalis): 4 µg/mL (≈ 7.82 µM) | MIC [9]: 4 µg/mL (≈ 7.82 µM) | MIC (Staphylococcus aureus [10]): 8 µg/mL (≈ 15.6 µM)

CC(=O)NC[C@H]1CN(c2ccc(N3CCN(C(=O)c4cc(Br)no4)CC3)c(F)c2)C(=O)O1
MIC (Enterococcus faecium [1]): 2 µg/mL (≈ 3.92 µM) | MIC [2]: 1 µg/mL (≈ 1.96 µM) | MIC (Enterococcus faecium [3]): 4 µg/mL (≈ 7.84 µM) | MIC (Staphylococcus aureus [4]): 1 µg/mL (≈ 1.96 µM) | MIC (Streptococcus pyogenes [5]): 1 µg/mL (≈ 1.96 µM) | MIC (Staphylococcus aureus [6]): 2 µg/mL (≈ 3.92 µM) | MIC (Staphylococcus aureus [7]): 4 µg/mL (≈ 7.84 µM) | MIC (Streptococcus pyogenes [8]): 1 µg/mL (≈ 1.96 µM) | MIC (Enterococcus faecalis): 2 µg/mL (≈ 3.92 µM) | MIC [9]: 2 µg/mL (≈ 3.92 µM) | MIC (Staphylococcus aureus [10]): 2 µg/mL (≈ 3.92 µM)

CC(=O)NC[C@H]1CN(c2ccc(N3CCN(Cc4cc(-c5ccc(C)cc5)no4)CC3)c(F)c2)C(=O)O1
MIC (Enterococcus faecium [1]): 8 µg/mL (≈ 15.8 µM) | MIC [2]: 4 µg/mL (≈ 7.88 µM) | MIC (Enterococcus faecium [3]): 8 µg/mL (≈ 15.8 µM) | MIC (Staphylococcus aureus [4]): 8 µg/mL (≈ 15.8 µM) | MIC (Streptococcus pyogenes [5]): 4 µg/mL (≈ 7.88 µM) | MIC (Staphylococcus aureus [6]): 32 µg/mL (≈ 63 µM) | MIC (Staphylococcus aureus [7]): 32 µg/mL (≈ 63 µM) | MIC (Streptococcus pyogenes [8]): 4 µg/mL (≈ 7.88 µM) | MIC (Enterococcus faecalis): 16 µg/mL (≈ 31.5 µM) | MIC [9]: 8 µg/mL (≈ 15.8 µM) | MIC (Staphylococcus aureus [10]): 32 µg/mL (≈ 63 µM)

CC(=O)NC[C@H]1CN(c2ccc(N3CCN(Cc4cc(-c5ccc(C#N)cc5)no4)CC3)c(F)c2)C(=O)O1
MIC (Enterococcus faecium [1]): 8 µg/mL (≈ 15.4 µM) | MIC [2]: 4 µg/mL (≈ 7.71 µM) | MIC (Enterococcus faecium [3]): 16 µg/mL (≈ 30.9 µM) | MIC (Staphylococcus aureus [4]): 8 µg/mL (≈ 15.4 µM) | MIC (Streptococcus pyogenes [5]): 2 µg/mL (≈ 3.86 µM) | MIC (Staphylococcus aureus [6]): 16 µg/mL (≈ 30.9 µM) | MIC (Staphylococcus aureus [7]): 16 µg/mL (≈ 30.9 µM) | MIC (Streptococcus pyogenes [8]): 2 µg/mL (≈ 3.86 µM) | MIC (Enterococcus faecalis): 16 µg/mL (≈ 30.9 µM) | MIC [9]: 8 µg/mL (≈ 15.4 µM) | MIC (Staphylococcus aureus [10]): 16 µg/mL (≈ 30.9 µM)

CC(=O)NC[C@H]1CN(c2ccc(N3CCN(Cc4cc(C)no4)CC3)c(F)c2)C(=O)O1
MIC (Enterococcus faecium [1]): 16 µg/mL (≈ 37.1 µM) | MIC [2]: 16 µg/mL (≈ 37.1 µM) | MIC (Enterococcus faecium [3]): 16 µg/mL (≈ 37.1 µM) | MIC (Staphylococcus aureus [4]): 16 µg/mL (≈ 37.1 µM) | MIC (Streptococcus pyogenes [5]): 16 µg/mL (≈ 37.1 µM) | MIC (Staphylococcus aureus [6]): 16 µg/mL (≈ 37.1 µM) | MIC (Staphylococcus aureus [7]): 16 µg/mL (≈ 37.1 µM) | MIC (Streptococcus pyogenes [8]): 16 µg/mL (≈ 37.1 µM) | MIC (Enterococcus faecalis): 16 µg/mL (≈ 37.1 µM) | MIC [9]: 16 µg/mL (≈ 37.1 µM) | MIC (Staphylococcus aureus [10]): 16 µg/mL (≈ 37.1 µM)

CC(=O)NC[C@H]1CN(c2ccc(N3CCN(C(=O)c4cc(-c5cccs5)no4)CC3)c(F)c2)C(=O)O1
MIC (Enterococcus faecium [1]): 1 µg/mL (≈ 1.95 µM) | MIC [2]: 0.25 µg/mL (≈ 0.487 µM) | MIC (Enterococcus faecium [3]): 1 µg/mL (≈ 1.95 µM) | MIC (Staphylococcus aureus [4]): 1 µg/mL (≈ 1.95 µM) | MIC (Streptococcus pyogenes [5]): 0.5 µg/mL (≈ 0.974 µM) | MIC (Staphylococcus aureus [6]): 1 µg/mL (≈ 1.95 µM) | MIC (Staphylococcus aureus [7]): 1 µg/mL (≈ 1.95 µM) | MIC (Streptococcus pyogenes [8]): 0.5 µg/mL (≈ 0.974 µM) | MIC (Enterococcus faecalis): 1 µg/mL (≈ 1.95 µM) | MIC [9]: 1 µg/mL (≈ 1.95 µM) | MIC (Staphylococcus aureus [10]): 1 µg/mL (≈ 1.95 µM)
